Source: patent US6348445B1, “Biologically active peptides with reduced toxicity in animals and a method for preparing same” (priority 1992, dated 2002)
≈ marks a conversion by molar mass, not a printed value. *1 amine or outer side, *2 acyl side, *3 side chain or, on linkers, in order; H or OH if unused. Where a SMILES comes first, the peptide text is derived from it. [ ]: non-standard residue; d: D form. The star is where a group is joined. X1 = O=C([C@H](CCCCNCS(=O)(=O)O)N[*:1])[*:2]; Octanoyl = CCCCCCCC(=O)*

Columns and labels:
[1] = tested on: P. aeruginosa strain ATCC 27853; type: cell-based; conditions: ATCC 27853
Outline: (§1)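 Broth microdilution per NCCLS M7-T2: final peptide levels 0.25 to 256 μg/ml (twofold steps), inoculum 1-5×10^5 CFUs/ml in full-strength Mueller Hinton broth. MIC read as lowest concentration leaving the well clear after 16-20 hours at 37° C.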

[2] = tested on: E. coli ATCC strain 25922; assay: Minimal Inhibitory Concentration, microtiter broth dilution; type: cell-based; conditions: ATCC strain 25922
Outline: as §1

[3] = tested on: S. aureus ATCC 29213; type: cell-based; conditions: ATCC 29213
[4] = tested on: C. albicans ATCC 90028; type: cell-based; conditions: ATCC 90028
Description: The procedure for the anti-bacterial assay is based upon the guidelines of the National Committee for Clinical Laboratory Standards, Document M7-T2, Volume 8, No. 8, 1988, which document is entirely incorporated herein by reference.
Stock solutions of peptides, with and without the appropriate substitutions, were prepared at a concentration of 512 μg/ml in sterile deionized distilled water and stored at −70° C.
The stock peptide solution was diluted in serial dilutions (1:2) down the wells of a microtiter plate so that the final concentrations of peptides in the wells were 0.25, 0.50, 1, 2, 4, 8, 16, 32, 64, 128 and 256 μg/ml. 1-5×10^5 CFUs/ml of either S. aureus ATCC 25923, E. coli ATCC 25922, P. aeruginosa ATCC 27853, or C. albicans, were added to the wells in full strength Mueller Hinton broth (BBL 11443) from a mid-log culture. The inoculum was standardized spectrophotometrically at 600 nm and was verified by colony counts. The plates were incubated for 16-20 hours at 37° C., and the minimal inhibitory concentration (MIC) for each peptide was determined. Minimal inhibitory concentration is defined as the lowest concentration of peptide which produces a clear well in the microtiter plate. The minimal inhibitory concentration of each of the peptides with and/or without the appropriate substitutions is given in Table I below.
The in vitro anti-microbial activities of the methane sulfonate derivatives were determined according to the methods described in Examples 1 and 2. The activities against ATCC strains of S. aureus, E. coli, P. aeruginosa, and C. albicans, and the hemolysis of red blood cells were compared to the parent compound (Table IV). The activities for Compound 843 (Oct-SEQ ID NO:143) methane sulfonate against clinical strains of P. aeruginosa isolated from cystic fibrosis patients were compared to the parent compound (Table V). The activity for Compound 469 (Oct-SEQ ID NO:27) methane sulfonate against P. gingivalis was compared to the parent compound (Table VI).

[5] = tested on: P. gingivalis

MIC P. aeruginosa ATCC 27853 [1]: 32 mg/L (≈ 11.6 µM)
MIC E. coli ATCC 25922 [2]: 8 mg/L (≈ 2.91 µM)
MIC S. aureus ATCC 29213 [3]: 4 mg/L (≈ 1.45 µM)
MIC C. albicans ATCC 90028 [4]: 64 mg/L (≈ 23.2 µM)
MIC P. gingivalis ATTC 33277 [5]: 8 mg/L (≈ 2.91 µM)
Compound: CCCCCCCC(=O)N[C@@H](CCCCNCS(=O)(=O)O)C(=O)N[C@H](C(=O)N[C@@H](C)C(=O)NCC(=O)N[C@@H](CCCCNCS(=O)(=O)O)C(=O)N[C@H](C(=O)N[C@@H](C)C(=O)N[C@@H](CCCCNCS(=O)(=O)O)C(=O)N[C@H](C(=O)N[C@@H](C)C(=O)NCC(=O)N[C@@H](CCCCNCS(=O)(=O)O)C(=O)N[C@H](C(=O)N[C@@H](C)C(=O)N[C@@H](CCCCNCS(=O)(=O)O)C(=O)N[C@H](C(=O)N[C@@H](C)C(=O)NCC(=O)N[C@@H](CCCCNCS(=O)(=O)O)C(=O)N[C@H](C(=O)N[C@@H](C)C(N)=O)[C@@H](C)CC)[C@@H](C)CC)[C@@H](C)CC)[C@@H](C)CC)[C@@H](C)CC)[C@@H](C)CC [Compound 1662] (Octanoyl-[X1]IAG[X1]IA[X1]IAG[X1]IA[X1]IAG[X1]IA-NH2)
